Assay results as given in patent publication US12662707B2, “MYC amplification drives resistance to pan-RAS inhibitors in pancreatic cancer” (The Trustees of Columbia University in the City of New York, priority 2024, dated 2026).

Assays:
[1] = Pharmacokinetics in Capan-1 xenograft model (tumor and blood); type: in vivo; conditions: BALB/c (immune-deficient), mouse, tumor vs whole blood, oral; Capan-1 xenograft tumors; read-out: overall exposure (AUC0-48) in tumors compared to blood
Experimental: Studies were terminated early if tumor burden reached humane endpoint. Body weights were collected twice a week during the study. Means±s.e.m were plotted in the waterfall plots. For the single-dose pharmacokinetic/pharmacodynamic (PK/PD) study, mice were randomized and assigned into groups (n=3-6/dose/timepoint). […] Sakura, 4583) solution or snap-frozen in LN2 for further analysis. Whole blood was transferred into K2EDTA Microtainer tubes (BD, 365974), incubated for 5 minutes and snap-frozen in LN2. Whole blood, tumor, colon and skin tissue concentrations of RMC-7977 were determined using liquid chromatography-tandem mass spectrometry (LC-MS/MS) methods. […] After thorough mixing and centrifugation, the supernatant was directly analyzed on a Sciex 6500+ triple quadrupole mass spectrometer equipped with an ACQUITY or Shimadzu UPLC system. An ACQUITY UPLC BEH C18 or C4 […] (2.1×50 mm) column was used with gradient elution for compound separation. RMC-7977 and IS (verapamil or terfenadine) were detected by positive electrospray ionization using multiple reaction monitoring (RMC-7977: m/z 865.4/706.4 or m/z 865.3/833.5; verapamil: m/z 455.2/164.9; terfenadine: m/z 472.3/436.4). […] BA analysis on blood and tissue samples from xenograft models was run at Wuxi AppTec. BA analysis on blood and tissue samples from allograft models and GEMM was run at Revolution Medicines.

[2] = system: murine Dusp6 mRNA in normal colon and skin; assay: PK/PD in normal colon and skin of CDX tumor-bearing mice (Dusp6 qRT-PCR); type: in vivo, mouse
Experimental: Tumor-bearing animals were randomized and assigned into groups (n=3-10/group). Vehicle or RMC-7977 was administered via oral gavage daily at 10 mg/kg and animals were treated for 21-28 days. Studies were terminated early if tumor burden reached humane endpoint. Body weights were collected twice a week during the study. Means±s.e.m were plotted in the waterfall plots. For the single-dose pharmacokinetic/pharmacodynamic (PK/PD) study, mice were randomized and assigned into groups (n=3-6/dose/timepoint). A single dose of RMC-7977 was administered orally at 10 mg/kg, 25 mg/kg and 50 mg/kg. […]
Whole blood, tumor, colon and skin tissue concentrations of RMC-7977 were determined using liquid chromatography-tandem mass spectrometry (LC-MS/MS) methods. […] After thorough mixing and centrifugation, the supernatant was directly analyzed on a Sciex 6500+ triple quadrupole mass spectrometer equipped with an ACQUITY or Shimadzu UPLC system. […] RMC-7977 and IS (verapamil or terfenadine) were detected by positive electrospray ionization using multiple reaction monitoring (RMC-7977: m/z 865.4/706.4 or m/z 865.3/833.5; verapamil: m/z 455.2/164.9; terfenadine: m/z 472.3/436.4). The lower limit of quantification was 0.5 ng/mL or 2.0 ng/mL for blood, tumor, and other tissue. […]

With `CCn1c(-c2cc(N3CCN(C4CC4)CC3)cnc2[C@H](C)OC)c2c3cc(ccc31)-c1csc(n1)C[C@H](NC(=O)[C@H]1[C@@H]3COC[C@@H]31)C(=O)N1CCC[C@H](N1)C(=O)OCC(C)(C)C2` [RMC-7977] the Kp [1] was ~3, the “fold lower EC50 in Capan-1 tumors compared to colon” value ([2]; normal colon) was ~22 fold and the “fold lower EC50 in Capan-1 tumors compared to skin” value ([2]; normal skin) was ~8 fold.
